In one series the test system is RXR:RAR heterodimer. Description: RXR:RAR heterodimer co-transfection assay (RARa Synergy CTF) in CV-1 cells. The class given is cell-based, human. The conditions noted are these: for RARa Synergy CTF % Efficacy: agonist efficacy. The source says: In the co-transfection assay, cloned cDNA for one or more IRs (e.g. human RARα, RXRα, or PPARγ), alone or in combination (i.e. for heterodimer assays) under the control of a constitutive promoter (e.g., the SV 40, RSV or CMV promoter) is introduced by transfection (a procedure to introduce exogenous genes into cells) into a background cell substantially devoid of endogenous IRs. These introduced gene(s) direct the recipient cells to make the IR protein(s) of interest. A further gene is also introduced (co-transfected) into the same cells in conjunction with the IR gene(s). This further gene, comprising the cDNA for a reporter protein, such as firefly luciferase (LUC), controlled by an appropriate hormone responsive promoter containing a hormone response element (HRE). This reporter plasmid functions as a reporter for the transcriptional-modulating activity of the target IR(s). Thus, the reporter acts as a surrogate for the products (mRNA then protein) normally expressed by a gene under control of the target receptor(s) and their native hormone(s).
The RXR modulator compounds of the present invention were further tested for activity on RXR heterodimers with RARα utilizing the cotransfection assay in CV-1 cells as described in Example 12B. The RXR:RAR heterodimer cotransfection assays utilized the following expression plasmids and reporter plasmid: pRShRARα (10 ng/well, Giguere et al., 330 Nature, 624 (1987) the disclosure of which is herein incorporated by reference) or pRShRARγ (10 ng/well, Ishikawa et al., 4 Mol. Endocrin, 837 (1990) the disclosure of which is herein incorporated by reference) with Δ-MTV-LUC (50 ng/well, Hollenberg and Evans, 55 Cell, 899 (1988), the disclosure of which is herein incorporated by reference) containing an RARE which is referred to as two copies of the TRE-palindromic response element described in Umesono et al., 336 Nature, 262 (1988), the disclosure of which is herein incorporated by reference. To conduct a RXR:PPARγ heterodimer cotransfection assay, the RXRα receptor expression plasmid, pRShRXRα (10 ng/well), can be cotransfected with the PPARγ expression plasmid, pCMVhPPARγ (10 ng/well), and a reporter plasmid containing three copies of a PPARγ response element (pPREA3-tk-LUC, 50 ng/well; Mukherjee et al. 272 Journ. Biol. Chem., 8071-8076 (1997) and references cited therein, the disclosures of which are herein incorporated by reference).
Cotransfections were performed as described in Example 12B. For determination of agonist activity in the context of the RXR:RAR heterodimer, media containing compounds of the present invention in concentrations ranging from 10^−10 to 10^−5 M were added to the cells. Similarly, the reference compounds all-trans retinoic acid (ATRA)(Sigma Chemical) and TTNPB ((E)-4-[2-(5,6,7,8-tetrahydro-5,5,8,8-tetramethyl-2-naphthalenyl)-1-propenyl]benzoic acid: Hoffman LaRoche, Inc.), known RAR agonist compounds were added at similar concentrations to provide a reference point for analysis of the agonist activity of the compounds of the present invention. Antagonist efficacy and IC50 values were determined as in Example 12B.
RAR suppresses RXR ligand binding and transactivation of typical RXR agonists (e.g., LGD1069, LG100268) via allosteric interactions. Forman, B. M., Umesono, K., Chen, J., & Evans, R. M., Cell 81, 541-550 (1995) and Kurokawa, R., et. al. Nature 371, 528-531 (1994). However, when RAR is occupied, typical RXR agonists activate the heterodimer. Forman, B. M., Umesono, K, Chen, J., & Evans, R. M., Cell 81, 541-550 (1995) and Roy, B., Taneja, R., & Chambon, P., Mol. Cell. Biol. 15, 6481-6487 (1995). To examine the effects of the compounds of the present invention on the transcriptional properties of the RXR:RAR heterodimer, a heterodimer cotransfection assay as described above was employed.

For another series, the target named is T1, RXRβ (UniProt P28704).
T1 sequence (P28704 1-520): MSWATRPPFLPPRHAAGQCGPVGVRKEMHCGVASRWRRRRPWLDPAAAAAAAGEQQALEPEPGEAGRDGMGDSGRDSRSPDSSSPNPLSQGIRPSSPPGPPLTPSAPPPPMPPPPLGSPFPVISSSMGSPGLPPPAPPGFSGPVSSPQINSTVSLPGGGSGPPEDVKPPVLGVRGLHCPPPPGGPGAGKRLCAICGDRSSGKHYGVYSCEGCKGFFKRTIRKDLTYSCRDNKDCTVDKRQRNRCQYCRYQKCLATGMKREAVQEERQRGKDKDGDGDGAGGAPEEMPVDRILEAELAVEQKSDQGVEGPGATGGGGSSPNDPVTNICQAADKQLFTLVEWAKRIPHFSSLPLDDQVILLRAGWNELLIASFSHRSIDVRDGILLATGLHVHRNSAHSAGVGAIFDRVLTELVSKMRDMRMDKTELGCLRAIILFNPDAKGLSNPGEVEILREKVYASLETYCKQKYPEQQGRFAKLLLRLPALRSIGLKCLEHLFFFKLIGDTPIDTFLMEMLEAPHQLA
The series is described as follows: RXR binding, competition with tritiated retinoid. The note with it: read-out: RXR Binding beta. The source says: In addition to the cotransfection data, the binding of selected compounds of the present invention to the RAR and RXR receptors was also investigated according to the methodology described in M. F., Boehm, et al., “Synthesis and Structure-Activity Relation-ships of Novel Retinoid X Receptor Selective Retinoids”, 37 J. Med. Chem., 2930 (1994); M. F. Boehm, et al., “Synthesis of High Specific Activity [^3H]-9-cis Retinoic Acid and Its Application for Identifying Retinoids with Unusual Binding Properties”, 37 J. Med. Chem., 408 (1994), and E. A. Allegretto, et al., “Characterization and Comparison of Hormone-Binding and Transactivation Properties of Retinoic Acid and Retinoid X Receptors Expressed in Mammalian Cells and Yeast”, 268 J. Biol. Chem., 22625 (1993), the disclosures of which are herein incorporated by reference.
Non-specific binding was defined as that binding remaining in the presence of 500 nM of the appropriate unlabelled compound. At the end of the incubation period, bound ligand was separated from free. The amount of bound tritiated retinoid was determined by liquid scintillation counting of an aliquot (700 μL) of the supernatant fluid or the hydroxylapatite pellet.
After correcting for non-specific binding, IC50 values were determined. The IC50 value is defined as the concentration of competing ligand needed to reduce specific binding by 50%. The IC50 value was determined graphically from a log-logit plot of the data. The Ki values were determined by application of the Cheng-Prussof equation to the IC50 values, the labeled ligand concentration and the Kd of the labeled ligand.

As to `C/C(=C/C=C(F)/C(C)=C/C(=O)O)c1cc(C(C)(C)C)cc(C(C)(C)C)c1OCC(F)F` [Example 1, 7-[3,5-di-tert-butyl-2-(2,2-difluoroethoxy)-phenyl]4-fluoro-3-methyl-octa-2,4,6-trienoic acid], in the series with RXR:RAR heterodimer, the “RARa Synergy CTF fold induction” value is reported as 3 and the “RARa Synergy CTF % Efficacy” value is listed as 28%. Further, the Ki at RXRβ was found to be 12 nM.

As for `C/C(=C/C(F)=C/C(C)=C/C(=O)O)c1cc(C(C)(C)C)cc(C(C)(C)C)c1OCC(F)F` [Example 2, 7-[3,5-Di-tert-butyl-2-(2,2-difluoroethoxy)-phenyl]-5-fluoro-3-methyl-octa-2,4,6-trienoic acid], in the series with RXR:RAR heterodimer, the “RARa Synergy CTF fold induction” value came to 9 and the “RARa Synergy CTF % Efficacy” value was determined as 112%. Moreover, the Ki on RXRβ stood at 15 nM.

For the molecule `CCCCOc1c(\C(C)=C/C=C/C(=C/C(=O)O)C(F)(F)F)cc(C(C)C)cc1C(C)C` [Example 3, (2Z,4E,6Z)-7-(2-Butoxy-3,5-diisopropylphenyl)-3-trifluoromethyl-octa-2,4,6-trienoic acid], in the series on RXR:RAR heterodimer, the “RARa Synergy CTF fold induction” value came out at 1 and the “RARa Synergy CTF % Efficacy” value turned out to be 6%. The Ki at RXRβ was 203 nM.

Regarding `CCCCOc1c(\C(C)=C/C=C/C(=C\C(=O)O)C(F)(F)F)cc(C(C)C)cc1C(C)C` [Example 4, (2E,4E,6Z)-7-(2-Butoxy-3,5-diisopropylphenyl)-3-trifluoromethyl-octa-2,4,6-trienoic acid], in the series with RXR:RAR heterodimer, the “RARa Synergy CTF fold induction” value is listed as 1 and the “RARa Synergy CTF % Efficacy” value stood at 6%. Besides, the Ki on RXRβ was 1080 nM.

Take `CCOc1c(\C(=C/C=C/C(C)=C/C(=O)O)C(F)(F)F)cc(C(C)(C)C)cc1C(C)(C)C` [Example 5, (2E,4E,6E)-3-methyl-7-(2-ethoxy-3,5-di-tert-butylphenyl)-8,8,8-trifluoroocta-2,4,6-trienoic acid]: the “RARa Synergy CTF % Efficacy” value in the series with RXR:RAR heterodimer amounted to 7%. Also, the Ki on RXRβ worked out at 52 nM.
